Experimental data taken from US5891869A, “Basic oxazoline-amide derivatives of GE2270 and GE2270-like antibiotics” (Biosearch Italia, S.p.A., priority 1995, dated 1999).

Tests used:
Strept. pneumoniae L44 = test: MIC by microbroth dilution; format: cell-based, Streptococcus pneumoniae; settings: 0,01% BSA, 10^4 CFU/ml, 18-24 h, Todd Hewitt broth
Method: (§1) The minimal inhibitory concentration (MIC) has been determined by microbroth dilution methodology, in the presence of 0,01% (w/v) of bovine serum albumin (BSA). BSA is added to the diluent to avoid possible adherence of the compounds of the invention to the plastic surface of the microtiter wells, as disclosed also by B. Goldstein et al., Antimicrobial Agents and Chemotherapy, 37 (1993), 741-745.
(§2) Inocula were 10^4 CFU/ml, except for Propionibacterium acnes and Bacteroides fragilis (10^5 CFU/ml) MICs were read after 18-24 h, except for Haemophilus influenzae, P. acnes, B. fragilis (48 h).
(§3) All microorganisms were incubated at 37° C.; H. influenzae in a 5% CO2 atmosphere, anaerobes in a N2 --CO2 --H2 (80:10:10) mixture; other organisms in air.
(§4) The growth media are: Oxoid Iso-Sensitest broth for staphylococci and Enterococcus faecalis); Difco Todd Hewitt broth for streptococci; Difco brain heart infusion broth+1% Difco Supplement C. for H. influenzae; Difco Wilkins-Chalgren broth for anaerobes.

[1] = system: Enterococcus faecalis ATCC 7080 L149; test: MIC by microbroth dilution; format: cell-based; settings: Enterococc. faecalis ATCC 7080 L149; 0,01% BSA; 10^4 CFU/ml; 18-24 h; Iso-Sensitest broth
Method: as §1, §2, §3, §4

[2] = system: Staphylococcus aureus L165; test: MIC by microbroth dilution; format: cell-based; settings: 0,01% BSA, inoculum 10^4 CFU/ml, read after 18-24 h, Iso-Sensitest broth
Method: as §1, §2, §3, §4

[3] = system: Streptococcus pyogenes L49; test: MIC by microbroth dilution; format: cell-based; settings: 0,01% BSA, 10^4 CFU/ml, 18-24 h, Todd Hewitt broth
Method: as §1, §2, §3, §4

[4] = system: Bacteroides fragilis ATCC 25285 L1011; test: MIC by microbroth dilution; format: cell-based; settings: 0,01% BSA, 10^5 CFU/ml, 48 h, anaerobic, Wilkins-Chalgren broth
Method: as §1, §2, §3, §4

[5] = system: Haemoph. influenzae ATCC 19418 L970; test: MIC by microbroth dilution; format: cell-based, Haemophilus influenzae; settings: 0,01% BSA, 10^4 CFU/ml, 48 h, 5% CO2, brain heart infusion broth+1% Supplement C
Method: as §1, §2, §3, §4

Staph. haemolyticus L602 = test: MIC by microbroth dilution; format: cell-based, Staphylococcus haemolyticus; settings: 0,01% BSA, 10^4 CFU/ml, 18-24 h, Iso-Sensitest broth
Method: as §1, §2, §3, §4

[6] = system: Propionibact. acnes ATCC 6919 L1014; test: MIC by microbroth dilution; format: cell-based, Propionibacterium acnes; settings: 0,01% BSA, 10^5 CFU/ml, 48 h, anaerobic, Wilkins-Chalgren broth
Method: as §1, §2, §3, §4

[7] = system: Staph. epidermidis ATCC 12228 L147; test: MIC by microbroth dilution; format: cell-based, Staphylococcus epidermidis; settings: 0,01% BSA, 10^4 CFU/ml, 18-24 h, Iso-Sensitest broth
Method: as §1, §2, §3, §4

Strept. sanguis L1721 = test: MIC by microbroth dilution; format: cell-based, Streptococcus sanguis; settings: 0,01% BSA, 10^4 CFU/ml, 18-24 h, Todd Hewitt broth
Method: as §1, §2, §3, §4

Strept. agalactiae L310 = test: MIC by microbroth dilution; format: cell-based, Streptococcus agalactiae; settings: 0,01% BSA, 10^4 CFU/ml, 18-24 h, Todd Hewitt broth
Method: as §1, §2, §3, §4

gram positive bacteria = settings: from K. Shimanaka et al.; cited from earlier work

| Compound | MIC of the compounds (Strept. pneumoniae L44) | MIC of the compounds [1] | MIC of the compounds [2] | MIC of the compounds [3] | MIC of the compounds [4] | MIC of the compounds [5] | MIC of the compounds (Staph. haemolyticus L602) | MIC of the compounds [6] | MIC of the compounds [7] | MIC of the compounds (Strept. sanguis L1721) | MIC of the compounds (Strept. agalactiae L310) | antimicrobial activity (gram positive bacteria) |
| --- | --- | --- | --- | --- | --- | --- | --- | --- | --- | --- | --- | --- |
| CNC(=O)CC1NC(=O)c2csc(n2)-c2ccc(-c3nc(C4=NC(C(=O)NC5CNC(C(N)=O)C5)CO4)cs3)nc2-c2csc(n2)-c2csc(n2)C(C(O)c2ccccc2)NC(=O)CNC(=O)c2nc(sc2COC)C(C(C)C)NC(=O)c2nc1sc2C.O=C(O)C(F)(F)F (mixture of isomers) [Compound 13] | 0.5 µg/mL | 0.06 µg/mL | 0.13 µg/mL | 4 µg/mL | > 128 µg/mL | 128 µg/mL | 0.5 µg/mL | 0.13 µg/mL | 0.5 µg/mL | – | – | – |
| CNC(=O)CC1NC(=O)c2csc(n2)-c2ccc(-c3nc(C4=NC(C(=O)N(C)CCN5CCN(CCO)CC5)CO4)cs3)nc2-c2csc(n2)-c2csc(n2)C(C(O)c2ccccc2)NC(=O)CNC(=O)c2nc(sc2COC)C(C(C)C)NC(=O)c2nc1sc2C (mixture of isomers) [Compound 19] | 0.13 µg/mL | 0.016 µg/mL | 0.06 µg/mL | 1 µg/mL | 4 µg/mL | 16 µg/mL | 0.13 µg/mL | 0.016 µg/mL | 0.13 µg/mL | 0.13 µg/mL | 2 µg/mL | – |
| CNC(=O)CC1NC(=O)c2csc(n2)-c2ccc(-c3nc(C4=NC(C(=O)N(C)CCN(C)C)CO4)cs3)nc2-c2csc(n2)-c2csc(n2)C(C(O)c2ccccc2)NC(=O)CNC(=O)c2nc(sc2COC)C(C(C)C)NC(=O)c2nc1sc2C (stereo not shown) [Compound 4s] | 0.25 µg/mL | 0.016 µg/mL | 0.06 µg/mL | 1 µg/mL | 8 µg/mL | 64 µg/mL | 0.06 µg/mL | 0.03 µg/mL | 0.06 µg/mL | 0.13 µg/mL | 0.5 µg/mL | – |
| CNC(=O)CC1NC(=O)c2csc(n2)-c2ccc(-c3nc(C4=NC(C(=O)N5CCC(N(C)C)CC5)CO4)cs3)nc2-c2csc(n2)-c2csc(n2)C(C(O)c2ccccc2)NC(=O)CNC(=O)c2nc(sc2COC)C(C(C)C)NC(=O)c2nc1sc2C (stereo not shown) [Compound 10s] | 0.5 µg/mL | 0.03 µg/mL | 0.03 µg/mL | 1 µg/mL | 8 µg/mL | 8 µg/mL | 0.13 µg/mL | 0.016 µg/mL | 0.06 µg/mL | 0.5 µg/mL | 2 µg/mL | – |
| CNC(=O)CC1NC(=O)c2csc(n2)-c2ccc(-c3nc(C4=NC(C(=O)N(C)CCN5CCN(CCO)CC5)CO4)cs3)nc2-c2csc(n2)-c2csc(n2)C(C(O)c2ccccc2)NC(=O)CNC(=O)c2nc(sc2COC)C(C(C)C)NC(=O)c2nc1sc2C (stereo not shown) [Compound 19s] | 0.13 µg/mL | 0.016 µg/mL | 0.06 µg/mL | 1 µg/mL | 8 µg/mL | 8 µg/mL | 0.13 µg/mL | 0.016 µg/mL | 0.06 µg/mL | – | – | – |
| CNC(=O)CC1NC(=O)c2csc(n2)-c2ccc(-c3nc(C4=NC(C(=O)N5CCCC5C(N)=O)CO4)cs3)nc2-c2csc(n2)-c2csc(n2)C(C(C)C)NC(=O)CNC(=O)c2csc(n2)C(C(C)C)NC(=O)c2nc1sc2C (stereo not shown) [amythiamicin factor A] | – | – | – | – | – | – | – | – | – | – | – | shows antimicrobial activity against gram positive bacteria |
